Results as given in patent publication US20020183256A1, “Cytostatic-integrin conjugates having specifically cleavable linking units” (priority 2000, published 2002).
Where two headings read alike, the source gives them in different places. *1 amine or outer side, *2 acyl side, *3 side chain or, on linkers, in order; H or OH if unused. Where a SMILES comes first, the peptide text is derived from it. [ ]: non-standard residue; d: D form. The star is where a group is joined. Camptothecin(20R,20-O) = CC[C@]1(O*)C(=O)OCc2c1cc1n(c2=O)Cc2cc3ccccc3nc2-1; X2 = CCCNC(=O)Nc1cccc(S(=O)(=O)Nc2cccc(C(CC(=O)O)NC(=O)Nc3ccc(N*)cc3)c2)c1; X1 = CCCNC(=O)Nc1cccc(S(=O)(=O)Nc2cccc(C(CC(=O)O)N*)c2)c1; NH(1,4-C6H4)NHCS = S=C(Nc1ccc(N[*:1])cc1)[*:2]; CO = O=C([*:1])[*:2]; GABA = NCCCC(=O)O

What was measured:
αvβ3 receptor = target: T1, αvβ3 receptor (Homo sapiens, UniProt P05106+P06756); assay: αvβ3 binding test (echistatin displacement, WGA SPA beads); settings: αvβ3 from human A375 cells
T1 construct: αvβ3 from human A375 cells was purified; endogenous in cells; host or cells: human A375 cells (receptor purified from the cells, analogous to Wong et al. 1996)
T1 sequence (P06756 31-889 limits assumed): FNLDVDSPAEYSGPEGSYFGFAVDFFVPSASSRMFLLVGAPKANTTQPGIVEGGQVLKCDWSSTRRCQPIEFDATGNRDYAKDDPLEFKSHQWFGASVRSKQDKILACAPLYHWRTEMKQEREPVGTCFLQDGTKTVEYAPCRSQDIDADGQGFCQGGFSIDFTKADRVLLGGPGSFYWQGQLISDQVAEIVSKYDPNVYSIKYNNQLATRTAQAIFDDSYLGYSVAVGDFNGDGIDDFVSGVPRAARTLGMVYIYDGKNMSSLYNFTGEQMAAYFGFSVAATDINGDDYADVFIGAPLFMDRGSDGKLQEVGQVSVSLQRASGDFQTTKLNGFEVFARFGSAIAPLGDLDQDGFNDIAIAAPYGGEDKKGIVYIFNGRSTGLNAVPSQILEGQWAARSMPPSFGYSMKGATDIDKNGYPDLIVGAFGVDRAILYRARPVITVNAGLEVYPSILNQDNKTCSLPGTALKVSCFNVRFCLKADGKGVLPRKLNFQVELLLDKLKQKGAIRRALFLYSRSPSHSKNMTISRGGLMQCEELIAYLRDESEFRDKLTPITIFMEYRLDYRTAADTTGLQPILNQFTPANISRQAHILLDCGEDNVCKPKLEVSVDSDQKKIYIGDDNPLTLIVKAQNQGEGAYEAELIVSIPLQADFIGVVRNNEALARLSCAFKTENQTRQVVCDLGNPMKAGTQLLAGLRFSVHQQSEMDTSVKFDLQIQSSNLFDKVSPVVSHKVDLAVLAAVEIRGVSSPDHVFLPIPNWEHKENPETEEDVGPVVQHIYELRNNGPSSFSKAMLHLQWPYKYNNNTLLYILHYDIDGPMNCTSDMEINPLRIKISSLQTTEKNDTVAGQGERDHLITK
T1 sequence (P06756 891-1048 partner limits assumed): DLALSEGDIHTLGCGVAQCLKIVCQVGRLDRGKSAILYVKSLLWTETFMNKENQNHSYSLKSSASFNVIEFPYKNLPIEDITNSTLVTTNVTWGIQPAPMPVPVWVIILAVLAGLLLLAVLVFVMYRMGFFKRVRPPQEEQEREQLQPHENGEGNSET
T1 sequence (P05106 27-788): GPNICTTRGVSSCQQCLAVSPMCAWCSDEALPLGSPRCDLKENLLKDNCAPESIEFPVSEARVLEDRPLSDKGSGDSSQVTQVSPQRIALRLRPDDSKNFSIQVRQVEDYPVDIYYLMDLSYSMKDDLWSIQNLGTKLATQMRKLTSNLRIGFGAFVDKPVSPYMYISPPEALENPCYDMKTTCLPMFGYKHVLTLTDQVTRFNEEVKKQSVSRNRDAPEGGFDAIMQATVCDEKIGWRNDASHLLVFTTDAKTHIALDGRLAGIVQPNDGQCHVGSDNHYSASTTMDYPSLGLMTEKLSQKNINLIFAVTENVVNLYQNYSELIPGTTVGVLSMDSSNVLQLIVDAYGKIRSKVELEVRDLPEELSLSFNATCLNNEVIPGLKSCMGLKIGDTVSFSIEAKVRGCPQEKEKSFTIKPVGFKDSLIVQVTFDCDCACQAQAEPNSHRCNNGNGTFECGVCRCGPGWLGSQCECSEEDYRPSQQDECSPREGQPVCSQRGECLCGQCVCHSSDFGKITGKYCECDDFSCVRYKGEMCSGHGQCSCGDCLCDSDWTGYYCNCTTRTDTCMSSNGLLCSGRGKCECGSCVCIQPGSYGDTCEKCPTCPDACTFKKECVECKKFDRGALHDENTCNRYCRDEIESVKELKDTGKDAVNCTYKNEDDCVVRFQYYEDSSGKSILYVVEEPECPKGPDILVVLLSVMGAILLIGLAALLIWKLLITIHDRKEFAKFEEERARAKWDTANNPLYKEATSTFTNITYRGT
Procedure: αvβ3 from human A375 cells was purified analogously to a procedure which was described by Wong et al. (Molecular Pharmacology, 50, 529-537 (1996)). In each case, 10 μl of αvβ3 (5 ng) in TBS pH 7.6, 2 mM CaCl2, 1 mM MgCl2, 1% n-octylglucopyranoside (Sigma); 10 μl of test substance in TBS pH 7.6, 0.1% DMSO and 45 μl of TBS pH 7.6, 2 mM CaCl2, 1 mM MgCl2, 1 mM MnCl2 were incubated at room temperature for 1 h. In each case, 25 μl of WGA SPA beads (Amersham, 4 mg/ml) and 10 μl of echistatin (0.1 μCi, Amersham, chloramine-T labelled) were then added. After 16 hours at room temperature, the samples were measured in a scintillation measuring apparatus (Wallac 1450).

HT29 = assay: Growth inhibition test (MTT), cytotoxic action on tumour cell lines; assay type: cell-based, human
Procedure: (§1) The human large intestine cell lines SW 480 and HT29 (ATCC No. CCL 228 and HTB38 and the mouse melanoma cell line B16F10 (CRL 6475) were grown to confluence in Roux dishes in RPMI 1640 medium with addition of 10% FCS. They were then trypsinized and taken up in RPMI plus 10% FCS to a cell count of 50,000 cells or, for B16F10, 20,000 cells per ml. 100 μl of cell suspension/well were added to a 96 microwell plate and incubated at 37° C. for 1 day in a CO2 incubator. A further 100 μl of RPMI medium and 1 μl of DMSO were then added with the test substances. The growth was checked after day 6. For this, 25 μl of MTT solution (3-(4,5-dimethylthiazol-2-yl)-2,5-diphenyltetrazolium bromide) was added to each well at a starting concentration of 5 mg/ml of H2O. The plate was incubated at 37° C. for 5 hours in a CO2 incubator. The medium was then aspirated and 100 μl of i-propanol/well were added. After shaking with 100 μl of H2O for 30 min, the extinction was measured at 595 nm using a Multiplate Reader (BIO-RAD) 3550-UV).
(§2) The cytostatic action is indicated in Table 2 as an IC50 value, in each case for the individual cell lines.

SW 480 = assay: as above; assay type: cell-based, human
Procedure: as §1, §2

B16F10 = assay: as above; assay type: cell-based, mouse
Procedure: as §1, §2

[1] = In-vivo inhibition of tumour growth using a nude mouse model; parameters: species or system athymic nude mice (NMRI nu/nu strain); settings: NMRI nu/nu, mouse, in vivo; intravenously or intraperitoneally day 1-3 and day 15-17; nude mice; read-out: MTD (dose marked MTD)
Excerpt: (§3) In all in-vivo experiments for investigating the inhibition of tumour growth, athymic nude mice (NMRI nu/nu strain) were used. The tumour was developed by serial passage in nude mice. The human origin of the tumour was confirmed by isoenzymatic and immunohistochemical methods.
(§4) The tumour was implanted subcutaneously in both flanks of nu/nu nude mice 6 to 8 weeks old. The treatment was started, depending on the doubling time, as soon as the tumours had reached a diameter of 5-7 mm. The mice were assigned to the treatment group or the control group (5 mice per group having 8-10 assessable tumours) by randomization. The individual tumours of the control group all grew progressively.
(§5) The size of the tumours was measured in two dimensions by means of a slide gauge. The tumour volume, which correlated well with the cell count, was then used for all assessments. The volume was calculated according to the formula “length×breadth×breadth/2” ([a×b^2]/2, a and b represent two diameters arranged at right angles).
(§6) The values of the relative tumour volume (RTV) were calculated for each individual tumour by dividing the tumour size on day X with the tumour size on day 0 (at the time of randomization). The average values of the RTV were then used for the further assessment.
(§7) The inhibition of the increase of the tumour volume (tumour volume of the test group/control group, T/C, in per cent) was the final measured value.
(§8) The compounds can be administered with a daily or an intermittent therapy schedule through a couple of days either by intraperitoneal, intravenious, oral or subcutaneous route.
(§9) The compounds are dissolved in PEG400/water 2:1 and administered intravenously or intraperitoneally from day 1-3 and day 15-17.

[2] = tested on: melanoma xenograft model (MEXF 989); assay: as above; parameters: species or system athymic nude mice (NMRI nu/nu strain); settings: for optimal T/C in % / lethality: intravenously or intraperitoneally day 1-3 and day 15-17; for optimal T/C in %: MEXF 989; for lethality: MEXF 989 nude mice; for inhibition of the tumor growth (in words): subcutaneously growing melanoma xenograft MEXF 989
Excerpt: as §3, §4, §5, §6, §7, §8, §9

MMP-2 = target: T2, MMP-2 (Homo sapiens, UniProt P08253); assay: Cleavage of conjugates by MMP-2 in buffer (HPLC); assay type: biochemical; settings: after 6 h incubation with MMP-2; buffer pH 7.5
T2 construct: purchased Calbiochem
T2 sequence (P08253 110-660): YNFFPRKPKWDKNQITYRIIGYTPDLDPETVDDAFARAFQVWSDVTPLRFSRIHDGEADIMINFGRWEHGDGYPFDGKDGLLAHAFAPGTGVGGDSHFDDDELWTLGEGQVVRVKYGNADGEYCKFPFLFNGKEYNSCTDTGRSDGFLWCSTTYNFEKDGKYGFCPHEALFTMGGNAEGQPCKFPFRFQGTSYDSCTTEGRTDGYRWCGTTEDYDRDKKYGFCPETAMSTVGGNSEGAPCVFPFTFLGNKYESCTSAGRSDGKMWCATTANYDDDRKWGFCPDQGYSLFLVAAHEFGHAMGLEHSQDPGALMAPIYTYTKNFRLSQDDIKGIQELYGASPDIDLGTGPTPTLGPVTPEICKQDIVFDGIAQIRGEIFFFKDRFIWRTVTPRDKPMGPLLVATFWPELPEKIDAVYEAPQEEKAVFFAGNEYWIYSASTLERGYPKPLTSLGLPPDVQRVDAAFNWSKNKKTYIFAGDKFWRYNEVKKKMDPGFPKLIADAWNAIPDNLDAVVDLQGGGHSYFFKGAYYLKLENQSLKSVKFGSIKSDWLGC
Procedure: 2.5 μl MMP-2 (Calbiochem) with a specific activity of 60 μU/μl are incubated with 10 nM of the conjugates exemplified in the example series 1-25 in 1 ml of a medium consisting of 50 mM Tris-HCl pH 7.5, 0.2 M NaCl, 10 mM CaCL2*2H2O and 0.05% Brij 35. The enzyme mediated cleavage of the conjugates is detected by HPLC analysis using an RP18 (5 μM) column with 70% HClO4/water (0.4% v/v) as eluent A and acentonitrile as eluent B (UV detection at […]). The efficiency of the cleavage is assessed by comparing the peak areas of the intact conjugate (starting material) and the cleavage product (tripeptide conjugate of camptothecin) after 6 h and 24 h incubation (cf. Table 5).

[3] = IC50 values of the binding to the αvβ3 receptor
[4] = HT29, MTT after day 6, read-out: IC50 values of the cytotoxic action on tumour cell lines, HT29
[5] = SW480, MTT after day 6, read-out: IC50 values of the cytotoxic action on tumour cell lines, SW480
[6] = B16F10, MTT after day 6, read-out: IC50 values of the cytotoxic action on tumour cell lines, B16F10

Row | Compound | IC50 (αvβ3 receptor; read-out: IC50 values of the binding to the αvβ3 receptor) | IC50 (HT29; human, 6 days) | IC50 (SW 480; human, 6 days) | IC50 (B16F10; mouse, 6 days) | MTD [1] | optimal T/C in % ([2]; 6 mg/kg/day) | lethality ([2]; 6 mg/kg/day) | optimal T/C in % ([2]; 12 mg/kg/day) | lethality ([2]; 12 mg/kg/day) | inhibition of the tumor growth (in words) [2] | MMP-2 mediated cleavage Peak area product/educt x100 (MMP-2) | IC50 (αvβ3 receptor; [3]) | IC50 (HT29; [4]) | IC50 (SW 480; [5]) | IC50 (B16F10; [6])
1 | CCCNC(=O)Nc1cccc(S(=O)(=O)Nc2cccc(C(CC(=O)O)NC(=O)Nc3ccc(NC(=S)N4CCC[C@@H]4C(=O)N[C@@H](CC(C)C)C(=O)NCC(=O)N[C@H](CC(C)C)C(=O)N[C@H](Cc4c[nH]cn4)C(=O)N[C@@H](C(=O)O[C@@]4(CC)C(=O)OCc5c4cc4n(c5=O)Cc5cc6ccccc6nc5-4)C(C)C)cc3)c2)c1 (single isomer, unassigned) [Example 2] | 25 nM | 180 nM | 100 nM | 500 nM | 12 mg/kg/day | 17.7% | 0/5 | 7.4% | 1/5 (MTD) | effected inhibitions of the tumor growth | 18 | – | – | – | –
2 | CCCNC(=O)Nc1cccc(S(=O)(=O)Nc2cccc(C(CC(=O)O)NC(=O)Nc3ccc(NC(=S)N4CCC[C@@H]4C(=O)N[C@@H](CC(C)C)C(=O)NCC(=O)N[C@H](CSC)C(=O)N[C@H](Cc4c[nH]cn4)C(=O)N[C@@H](C(=O)O[C@@]4(CC)C(=O)OCc5c4cc4n(c5=O)Cc5cc6ccccc6nc5-4)C(C)C)cc3)c2)c1 (single isomer, unassigned) [Example 25] | – | 80 nM | 60 nM | 250 nM | 6 mg/kg/day | 19.6% | 1/5 (MTD) | – | – | effected inhibitions of the tumor growth | 9 | – | – | – | –
3 | CCCNC(=O)Nc1cccc(S(=O)(=O)Nc2cccc(C(CC(=O)O)NC(=O)Nc3ccc(NC(=O)N4CCC[C@@H]4C(=O)N[C@@H](CC(C)C)C(=O)NCC(=O)N[C@H](CC(C)C)C(=O)N[C@H](Cc4c[nH]cn4)C(=O)N[C@@H](C(=O)O[C@@]4(CC)C(=O)OCc5c4cc4n(c5=O)Cc5cc6ccccc6nc5-4)C(C)C)cc3)c2)c1 (stereo partly drawn) [Example 6] ({X2-CO}-[dP]LG[dL][dH][dV]-{Camptothecin(20R,20-O)}) | – | – | – | – | – | – | – | – | – | – | 33 | 60 nM | 40 nM | 50 nM | 150 nM
4 | CCCNC(=O)Nc1cccc(S(=O)(=O)Nc2cccc(C(CC(=O)O)NC(=O)Nc3ccc(NC(=O)N4CCC[C@@H]4C(=O)N[C@@H](CC(C)C)C(=O)NCC(=O)N[C@H](CC(C)C)C(=O)N[C@H](CC(N)=O)C(=O)N[C@@H](C(=O)O[C@@]4(CC)C(=O)OCc5c4cc4n(c5=O)Cc5cc6ccccc6nc5-4)C(C)C)cc3)c2)c1 (stereo partly drawn) [Example 12] ({X2-CO}-[dP]LG[dL][dN][dV]-{Camptothecin(20R,20-O)}) | – | – | – | – | – | – | – | – | – | – | 70 | 300 nM | 30 nM | 40 nM | 150 nM
5 | CCCNC(=O)Nc1cccc(S(=O)(=O)Nc2cccc(C(CC(=O)O)NC(=O)Nc3ccc(NC(=S)N4CCC[C@@H]4C(=O)N[C@@H](CC(C)C)C(=O)NCC(=O)N[C@H](CC(C)C)C(=O)N[C@H](CSC)C(=O)N[C@@H](C(=O)O[C@@]4(CC)C(=O)OCc5c4cc4n(c5=O)Cc5cc6ccccc6nc5-4)C(C)C)cc3)c2)c1 (stereo partly drawn) [Example 14] ({X1-CO}-[NH(1,4-C6H4)NHCS][dP]LG[dL][dC](Me)[dV]-{Camptothecin(20R,20-O)}) | – | – | – | – | – | – | – | – | – | – | 5 | 70 nM | 60 nM | 50 nM | 400 nM
6 | CCCNC(=O)Nc1cccc(S(=O)(=O)Nc2cccc(C(CC(=O)O)NC(=O)Nc3ccc(NC(=O)NCCCC(=O)N4CCC[C@@H]4C(=O)N[C@@H](CC(C)C)C(=O)NCC(=O)N[C@H](CC(C)C)C(=O)N[C@H](Cc4c[nH]cn4)C(=O)N[C@@H](C(=O)O[C@@]4(CC)C(=O)OCc5c4cc4n(c5=O)Cc5cc6ccccc6nc5-4)C(C)C)cc3)c2)c1 (stereo partly drawn) [Example 17] ({X2-CO-GABA}-[dP]LG[dL][dH][dV]-{Camptothecin(20R,20-O)}) | – | – | – | – | – | – | – | – | – | – | 16 | 50 nM | 100 nM | 70 nM | 600 nM
7 | CCCNC(=O)Nc1cccc(S(=O)(=O)Nc2cccc(C(CC(=O)O)NC(=O)Nc3ccc(NC(=O)NCCCC(=O)N4CCC[C@@H]4C(=O)N[C@@H](CC(C)C)C(=O)NCC(=O)N[C@H](CC(C)C)C(=O)N[C@H](CC(N)=O)C(=O)N[C@@H](C(=O)O[C@@]4(CC)C(=O)OCc5c4cc4n(c5=O)Cc5cc6ccccc6nc5-4)C(C)C)cc3)c2)c1 (stereo partly drawn) [Example 18] ({X2-CO-GABA}-[dP]LG[dL][dN][dV]-{Camptothecin(20R,20-O)}) | – | – | – | – | – | – | – | – | – | – | 51 | 20 nM | 25 nM | 35 nM | 70 nM
